Data published in patent US20100267561A1, “HERBICIDAL PYRIDAZINONE DERIVATIVES” (priority 2007, published 2010).

What was measured:
Assay type in all cases: in vivo
[1] = system: pigweed (Amaranthus retroflexus); assay: Test A pre-/postemergence plant response
Description: (§1) Seeds of species selected from barnyardgrass (Echinochloa crus-galli), large crabgrass (Digitaria sanguinalis), giant foxtail (Setaria faberi), blackgrass (Alopecurus myosuroides), canarygrass (Phalaris minor), morningglory (Ipomoea coccinea), pigweed (Amaranthus retroflexus), velvetleaf (Abutilon theophrasti), wheat (Triticum aestivum), and corn (Zea mays) were planted into a blend of loam soil and sand and treated preemergence with a directed soil spray using test chemicals formulated in a non-phytotoxic solvent mixture which included a surfactant. At the same time these species were also treated with postemergence applications of test chemicals formulated in the same manner.
(§2) Plants ranged in height from 2 to 10 cm and were in the one- to two-leaf stage for the postemergence treatment. Treated plants and untreated controls were maintained in a greenhouse for approximately 10 days, after which time all treated plants were compared to untreated controls and visually evaluated for injury. Plant response ratings, summarized in Table A, are based on a 0 to 100 scale where 0 is no effect and 100 is complete control. A dash (-) response means no test results.

[2] = system: velvetleaf (Abutilon theophrasti); assay: Test A pre-/postemergence plant response
Description: as §1, §2

[3] = system: wheat (Triticum aestivum); assay: Test A pre-/postemergence plant response
Description: as §1, §2

[4] = system: barnyardgrass (Echinochloa crus-galli); assay: Test A pre-/postemergence plant response
Description: as §1, §2

[5] = system: morningglory (Ipomoea coccinea); assay: Test A pre-/postemergence plant response
Description: as §1, §2

[6] = system: large crabgrass (Digitaria sanguinalis); assay: Test A pre-/postemergence plant response
Description: as §1, §2

[7] = system: giant foxtail (Setaria faberi); assay: Test A pre-/postemergence plant response
Description: as §1, §2

corn (Zea mays) = assay: Test A pre-/postemergence plant response
Description: as §1, §2

[8] = system: ducksalad (Heteranthera limosa); assay: Test B flooded paddy test plant response
Description: (§3) Plant species in the flooded paddy test consisted of rice (Oryza sativa), umbrella sedge (Cyperus difformis), ducksalad (Heteranthera limosa) and barnyardgrass (Echinochloa crus-galli) grown to the 2-leaf stage for testing. At time of treatment, test pots were flooded to 3 cm above the soil surface, treated by application of test compounds directly to the paddy water, and then maintained at that water depth for the duration of the test. Treated plants and controls were maintained in a greenhouse for 13 to 15 days, after which time all species were compared to controls and visually evaluated. Plant response ratings, summarized in Table B, are based on a scale of 0 to 100 where 0 is no effect and 100 is complete control. A dash (-) response means no test result.

[9] = system: barnyardgrass (Echinochloa crus-galli); assay: Test B flooded paddy test plant response
Description: as §3

rice (Oryza sativa) = assay: Test B flooded paddy test plant response
Description: as §3

[10] = system: umbrella sedge (Cyperus difformis); assay: Test B flooded paddy test plant response
Description: as §3

[11] = Postemergence, 125 g ai/ha, 0 to 100 scale, 0 no effect, 100 complete control
[12] = Postemergence, 500 g ai/ha, 0 to 100 scale, 0 no effect, 100 complete control
[13] = Preemergence, 125 g ai/ha, 0 to 100 scale (0 no effect, 100 complete control)
[14] = Preemergence, 500 g ai/ha, 0 to 100 scale (0 no effect, 100 complete control)
[15] = Flood (flooded paddy test), 62 g ai/ha, scale 0 to 100, 0 no effect, 100 complete control
[16] = Flood (flooded paddy test), 125 g ai/ha, scale 0 to 100, 0 no effect, 100 complete control
[17] = Flood (flooded paddy test), 250 g ai/ha, scale 0 to 100, 0 no effect, 100 complete control
[18] = Flood, 31 g ai/ha, scale 0 to 100

SMILES: Cc1cc(-c2ccc(OC(F)(F)F)cc2)nn1-c1c(O)cnn(C)c1=O [Compound 14]
- Plant response rating, Pigweed [1, 11]: 0
- Plant response rating, Pigweed [1, 12]: 0
- Plant response rating, Pigweed [1, 13]: 0
- Plant response rating, Pigweed [1, 14]: 0
- Plant response rating, Velvetleaf [2, 11]: 0
- Plant response rating, Velvetleaf [2, 12]: 30
- Plant response rating, Velvetleaf [2, 13]: 0
- Plant response rating, Velvetleaf [2, 14]: 20
- Plant response rating, Wheat [3, 11]: 40
- Plant response rating, Wheat [3, 12]: 70
- Plant response rating, Wheat [3, 13]: 10
- Plant response rating, Wheat [3, 14]: 80
- Plant response rating, Barnyardgrass [4, 11]: 70
- Plant response rating, Barnyardgrass [4, 12]: 100
- Plant response rating, Barnyardgrass [4, 13]: 70
- Plant response rating, Barnyardgrass [4, 14]: 100
- Plant response rating, Morningglory [5, 11]: 0
- Plant response rating, Morningglory [5, 12]: 0
- Plant response rating, Morningglory [5, 13]: 0
- Plant response rating, Morningglory [5, 14]: 0
- Plant response rating, Crabgrass, Large [6, 11]: 60
- Plant response rating, Crabgrass, Large [6, 12]: 90
- Plant response rating, Crabgrass, Large [6, 13]: 70
- Plant response rating, Crabgrass, Large [6, 14]: 90
- Plant response rating, Foxtail, Giant [7, 11]: 80
- Plant response rating, Foxtail, Giant [7, 12]: 100
- Plant response rating, Foxtail, Giant [7, 13]: 80
- Plant response rating, Foxtail, Giant [7, 14]: 100
- Plant response rating, Corn (corn (Zea mays); [11]): 40
- Plant response rating, Corn (corn (Zea mays); [12]): 80
- Plant response rating, Corn (corn (Zea mays); [13]): 0
- Plant response rating, Corn (corn (Zea mays); [14]): 60
- Plant response rating, Ducksalad [8, 15]: 0
- Plant response rating, Ducksalad [8, 16]: 40
- Plant response rating, Ducksalad [8, 17]: 40
- Plant response rating, Ducksalad [8, 18]: 0
- Plant response rating, Barnyardgrass [9, 15]: 0
- Plant response rating, Barnyardgrass [9, 16]: 20
- Plant response rating, Barnyardgrass [9, 17]: 20
- Plant response rating, Barnyardgrass [9, 18]: 0
- Plant response rating, Rice (rice (Oryza sativa); [15]): 0
- Plant response rating, Rice (rice (Oryza sativa); [16]): 0
- Plant response rating, Rice (rice (Oryza sativa); [17]): 20
- Plant response rating, Rice (rice (Oryza sativa); [18]): 0
- Plant response rating, Sedge, Umbrella [10, 15]: 60
- Plant response rating, Sedge, Umbrella [10, 17]: 60
- Plant response rating, Sedge, Umbrella [10, 18]: 0

SMILES: Cc1nc(-c2ccc(Cl)cc2)nn1-c1c(O)cnn(C)c1=O [Compound 17]
- Plant response rating, Pigweed [1, 11]: 0
- Plant response rating, Pigweed [1, 12]: 0
- Plant response rating, Pigweed [1, 13]: 0
- Plant response rating, Pigweed [1, 14]: 0
- Plant response rating, Velvetleaf [2, 11]: 0
- Plant response rating, Velvetleaf [2, 12]: 0
- Plant response rating, Velvetleaf [2, 13]: 0
- Plant response rating, Velvetleaf [2, 14]: 0
- Plant response rating, Wheat [3, 11]: 0
- Plant response rating, Wheat [3, 12]: 50
- Plant response rating, Wheat [3, 13]: 20
- Plant response rating, Wheat [3, 14]: 50
- Plant response rating, Barnyardgrass [4, 11]: 50
- Plant response rating, Barnyardgrass [4, 12]: 90
- Plant response rating, Barnyardgrass [4, 13]: 40
- Plant response rating, Barnyardgrass [4, 14]: 100
- Plant response rating, Morningglory [5, 11]: 0
- Plant response rating, Morningglory [5, 12]: 0
- Plant response rating, Morningglory [5, 13]: 0
- Plant response rating, Morningglory [5, 14]: 0
- Plant response rating, Crabgrass, Large [6, 11]: 40
- Plant response rating, Crabgrass, Large [6, 12]: 80
- Plant response rating, Crabgrass, Large [6, 13]: 0
- Plant response rating, Crabgrass, Large [6, 14]: 70
- Plant response rating, Foxtail, Giant [7, 11]: 80
- Plant response rating, Foxtail, Giant [7, 12]: 90
- Plant response rating, Foxtail, Giant [7, 13]: 40
- Plant response rating, Foxtail, Giant [7, 14]: 90
- Plant response rating, Corn (corn (Zea mays); [11]): 0
- Plant response rating, Corn (corn (Zea mays); [12]): 40
- Plant response rating, Corn (corn (Zea mays); [13]): 0
- Plant response rating, Corn (corn (Zea mays); [14]): 40
- Plant response rating, Ducksalad [8, 15]: 40
- Plant response rating, Ducksalad [8, 16]: 40
- Plant response rating, Ducksalad [8, 17]: 95
- Plant response rating, Ducksalad [8, 18]: 40
- Plant response rating, Barnyardgrass [9, 15]: 0
- Plant response rating, Barnyardgrass [9, 16]: 0
- Plant response rating, Barnyardgrass [9, 17]: 0
- Plant response rating, Barnyardgrass [9, 18]: 0
- Plant response rating, Rice (rice (Oryza sativa); [15]): 15
- Plant response rating, Rice (rice (Oryza sativa); [16]): 20
- Plant response rating, Rice (rice (Oryza sativa); [17]): 40
- Plant response rating, Rice (rice (Oryza sativa); [18]): 0
- Plant response rating, Sedge, Umbrella [10, 15]: 40
- Plant response rating, Sedge, Umbrella [10, 16]: 40
- Plant response rating, Sedge, Umbrella [10, 17]: 70
- Plant response rating, Sedge, Umbrella [10, 18]: 30

SMILES: CCc1cc(-c2ccc(Cl)c(Cl)c2)nn1-c1c(OC(=O)OC(C)C)cnn(C)c1=O [Compound 22]
- Plant response rating, Pigweed [1, 11]: 0
- Plant response rating, Pigweed [1, 12]: 0
- Plant response rating, Pigweed [1, 13]: 0
- Plant response rating, Pigweed [1, 14]: 0
- Plant response rating, Velvetleaf [2, 11]: 0
- Plant response rating, Velvetleaf [2, 12]: 0
- Plant response rating, Velvetleaf [2, 13]: 0
- Plant response rating, Velvetleaf [2, 14]: 0
- Plant response rating, Wheat [3, 11]: 20
- Plant response rating, Wheat [3, 12]: 60
- Plant response rating, Wheat [3, 13]: 40
- Plant response rating, Wheat [3, 14]: 70
- Plant response rating, Barnyardgrass [4, 11]: 50
- Plant response rating, Barnyardgrass [4, 12]: 90
- Plant response rating, Barnyardgrass [4, 13]: 30
- Plant response rating, Barnyardgrass [4, 14]: 100
- Plant response rating, Morningglory [5, 11]: 0
- Plant response rating, Morningglory [5, 12]: 0
- Plant response rating, Morningglory [5, 13]: 0
- Plant response rating, Morningglory [5, 14]: 0
- Plant response rating, Crabgrass, Large [6, 11]: 10
- Plant response rating, Crabgrass, Large [6, 12]: 80
- Plant response rating, Crabgrass, Large [6, 13]: 50
- Plant response rating, Crabgrass, Large [6, 14]: 90
- Plant response rating, Foxtail, Giant [7, 11]: 60
- Plant response rating, Foxtail, Giant [7, 12]: 80
- Plant response rating, Foxtail, Giant [7, 13]: 90
- Plant response rating, Foxtail, Giant [7, 14]: 100
- Plant response rating, Corn (corn (Zea mays); [11]): 20
- Plant response rating, Corn (corn (Zea mays); [12]): 90
- Plant response rating, Corn (corn (Zea mays); [13]): 30
- Plant response rating, Corn (corn (Zea mays); [14]): 70
- Plant response rating, Ducksalad [8, 15]: 0
- Plant response rating, Ducksalad [8, 16]: 0
- Plant response rating, Ducksalad [8, 17]: 0
- Plant response rating, Ducksalad [8, 18]: 0
- Plant response rating, Barnyardgrass [9, 15]: 0
- Plant response rating, Barnyardgrass [9, 16]: 0
- Plant response rating, Barnyardgrass [9, 17]: 0
- Plant response rating, Barnyardgrass [9, 18]: 0
- Plant response rating, Rice (rice (Oryza sativa); [15]): 0
- Plant response rating, Rice (rice (Oryza sativa); [16]): 0
- Plant response rating, Rice (rice (Oryza sativa); [17]): 0
- Plant response rating, Rice (rice (Oryza sativa); [18]): 0
- Plant response rating, Sedge, Umbrella [10, 15]: 0
- Plant response rating, Sedge, Umbrella [10, 16]: 0
- Plant response rating, Sedge, Umbrella [10, 17]: 0
- Plant response rating, Sedge, Umbrella [10, 18]: 0

SMILES: CSc1cc(-c2ccc(F)cc2)nn1-c1c(O)cnn(C)c1=O [Compound 23]
- Plant response rating, Pigweed [1, 11]: 0
- Plant response rating, Pigweed [1, 12]: 0
- Plant response rating, Pigweed [1, 13]: 0
- Plant response rating, Pigweed [1, 14]: 0
- Plant response rating, Velvetleaf [2, 11]: 0
- Plant response rating, Velvetleaf [2, 12]: 0
- Plant response rating, Velvetleaf [2, 13]: 0
- Plant response rating, Velvetleaf [2, 14]: 0
- Plant response rating, Wheat [3, 11]: 0
- Plant response rating, Wheat [3, 12]: 0
- Plant response rating, Wheat [3, 13]: 0
- Plant response rating, Wheat [3, 14]: 0
- Plant response rating, Barnyardgrass [4, 11]: 0
- Plant response rating, Barnyardgrass [4, 12]: 70
- Plant response rating, Barnyardgrass [4, 13]: 0
- Plant response rating, Barnyardgrass [4, 14]: 10
- Plant response rating, Morningglory [5, 11]: 0
- Plant response rating, Morningglory [5, 12]: 0
- Plant response rating, Morningglory [5, 13]: 0
- Plant response rating, Morningglory [5, 14]: 0
- Plant response rating, Crabgrass, Large [6, 11]: 0
- Plant response rating, Crabgrass, Large [6, 12]: 20
- Plant response rating, Crabgrass, Large [6, 13]: 0
- Plant response rating, Crabgrass, Large [6, 14]: 0
- Plant response rating, Foxtail, Giant [7, 11]: 20
- Plant response rating, Foxtail, Giant [7, 12]: 80
- Plant response rating, Foxtail, Giant [7, 13]: 20
- Plant response rating, Foxtail, Giant [7, 14]: 70
- Plant response rating, Corn (corn (Zea mays); [11]): 0
- Plant response rating, Corn (corn (Zea mays); [12]): 20
- Plant response rating, Corn (corn (Zea mays); [13]): 0
- Plant response rating, Corn (corn (Zea mays); [14]): 20
